How the values were obtained:
[1] = tested on: Maize plants; experiment: Greenhouse experiment on maize (SPAD chlorophyll reading); assay type: in vivo; details: seeds soaked, 0.1 mg/ha, 45 days after seeding, average of 4 replicates
Procedure: Test is performed under greenhouse conditions. Plants were grown in pots on a growth bench in the greenhouse at constant air temperature of 25° C. (day) and 20° C. (night) and 65% relative humidity. Plants were regularly watered with ½ strength Hoagland's solution containing nitrogen (Hoagland and Arnon, 1950) as needed. Maize seeds were carefully surface sterilized in 2% sodium hypochlorite for 3 min. followed by several rinsing with sterile distilled water (Bhuvaneswari et al. 1980). Seeds were directly sown in pots ([…]) containing a mixture of sand and turface (2:1, v/v) (2.5 L in each pot. Five seeds were put in each pot. The seeds were covered gently with the potting mixture and kept on the growth bench. After counting emergence, seedlings were thinned to one seedling per pot. Before sowing, seeds were soaked in solution containing the active ingredient at the desired concentration for at least two hours. The plants were allowed to grow for 45 days after seeding and were then harvested for final data collection. Data were collected on the SPAD meter readings (leaf greenness measurements (chlorophyll content); SPAD-502 Chlorophyll Meter (Konica Minolta Sensing Inc., Japan)

[2] = tested on: Glomus intraradices / Medicago truncatula plantlets; experiment: In vitro phosphate (33P) transport to host plant by mycorrhizal fungi; assay type: in vivo; details: 96 hours after addition of 33P, average of 4 replicates
Procedure: One-week-old Medicago truncatula plantlets were transferred in the AM-P in vitro culture systems (details on AM-P systems see: H. Dupré Boulois et al., 2006). The roots were placed in the root compartment (RC) on the surface of the solid MSR medium (Declerck et al., 2003) lacking vitamins and sucrose. The RC was filled with 25 ml and the hyphal compartment (HC) with 20 ml of solid MSR medium, lacking sucrose, vitamins and solidified with 3 g l^−1 Phytagel.
Roots of M. truncatula plantlets were subsequently inoculated with the spores (±100) of Glomus intraradices. The bi-compartmented Petri plates of the AM-P in vitro culture systems were then sealed using Parafilm (Pechiney, Menasha, Wis., USA) and wrapped in black plastic bags to maintain roots and the G. intraradices in the dark. The AM-P in vitro culture systems were subsequently incubated in a controlled environment chamber (20° C., 16 h photoperiod). The AMP in vitro culture systems were supplied weekly with 5 ml of MSR medium up to 2 weeks before radio-isotopic labelling (10 weeks after inoculation).
Three weeks after inoculation, AM fungal mycelium started to contact the roots and to develop in the entire volume of the RCs. Between week 5 and 7, the mycelium crossed the partition wall between the RCs and HCs and started to develop in the HCs. The roots that crossed the plastic barrier were trimmed to leave the HC void of roots. Eight weeks after inoculation, the medium contained in the HCs was removed and then replaced by fresh MSR medium, lacking sucrose, vitamins and solidified with 3 g l^−1 Phytagel. In this medium, the active ingredient at the desired concentrations (in 0.1% acetone) was also added. The mycelium started immediately to re-grow into the fresh medium containing the active ingredient. At time of labeling, the mycelium in the HCs was 2 weeks-old.
Ten weeks after beginning of the experiment (i.e. 2 weeks after initiation of hyphal development in the HCs containing the active ingredient), filter-sterilized (Acrodisc® Syringe Filters, PALL Corporation, Ann Arbor, Mich., USA) phosphorus (^33P) was added in the HCs (489520+/−12080 CPM per systems). The source of ^33P was orthophosphate in dilute hydrochloric acid (<0.1 M) supplied by Amersham Pharmacia Biotech (Buckinghamshire, UK). A control treatment was included. Four replicates were considered per treatment.
At the end of the experiment (i.e. 96 hours after the addition of ^33P), the shoots of M. truncatula were collected by cutting the shoots at the level of the solidified MSR medium contained in the RCs. The roots were then removed from the solidified MSR medium and cleaned-free from the remaining gel and extraradical mycelium. Root and shoots were oven dried (60° until constant weight) and weighted. […]

[3] = tested on: Soybean seeds; experiment: Germination test on soybean seeds; assay type: in vivo; details: agar plates, 7.5° C. dark, 5 replicates of 20 seeds
Procedure: (§1) The test is performed under lab conditions. Soybean and maize seeds, treated with the active ingredient solved in DMSO and diluted with water to the desired dosages, are placed on sterile agar plates (0.5% agar in water). Covered plates are incubated at 7.5° C. and 10° C. respectively in the dark. Wheat seeds, treated with the active ingredient, solved in DMSO and diluted with water to the desired dosages, are placed on sterile agar plates (1% agar in water). Covered plates are incubated at 7.5° C. in the dark. Controls are performed in the same conditions in the absence of the active ingredient. Assessment consisted of counting germinated seeds per plate at different time points.

[4] = tested on: Wheat seeds; experiment: Germination test on wheat seeds; assay type: in vivo; details: agar plates, 7.5° C. dark, 5 replicates of 20 seeds
Procedure: as §1

[5] = tested on: Maize seeds; experiment: Germination test on maize seeds; assay type: in vivo; details: agar plates, 10° C. dark, 5 replicates of 20 seeds
Procedure: as §1

[6] = tested on: Spring wheat; experiment: Spring wheat field trial (2010); assay type: in vivo; details: seed treatment of spring wheat, result in words
Procedure: Maize and wheat field trials were conducted in order to evaluate several assessments including the weight of plant (leaf+roots), the formation of mycorrhiza, and yield parameters like the weight of grains per plot in tons per ha and the 1000 kernel weight. In addition to the tested compounds, a basic treatment of fungicides was also applied on the seeds. The tested active ingredients were pre-diluted in DMSO and applied on seeds in tank mix with fungicides. Spring wheat: Germany (Monheim), soil description: sandy loam, phosphor 11 mg/100 g soil, potassium 14 mg/100 g soil, magnesium 8 mg/100 g soil, organic matter 1.2%, pH 6.4. Sowing date: 2010-04-01 In both crops no phosphate or potassium fertilizer were applied. Compound A1: 0.1 and 1 milligrams active ingredient per hectare Base: Fungicide: Fluoxastrobin+Prothioconazole+Tebuconazole FS 80/Dosage: 5.6+5.6+0.747 grams active ingredient per 100 kg seeds. The following yield parameters were assessed: tons per hectare (for wheat only), TKW=1000 kernel weight. Mycorrhization of roots of spring wheat plants was assessed by trypan blue staining followed by microscopy.

[7] = tested on: AMF spores; experiment: Arbuscular mycorrhizal fungi (AMF) spore germination experiment; assay type: cell-based; details: 10^−8M in M-medium, 26.5° C. dark, average of 3 replicates
Procedure: Test is performed under lab conditions. The active ingredient was solved in a solvent (acetone) and added to warm culture medium (M-medium; Bécard et Fortin, 1988) to obtain a final concentration of 10^−8M. After filling the culture medium in 24-well plates, AMF spores were deposited on the surface of culture medium. Plates were incubated at 26.5° C. in the dark. Assessment consisted of counting of germinated spores 3 and 4 days after application (daa).

[8] = tested on: maize roots inoculated with arbuscular mycorrhizal fungi; experiment: Greenhouse experiment on maize under low phosphate conditions (mycorrhization of roots); assay type: in vivo; details: maize seed treatment 0.1 mg/ha, AMF inoculum, low phosphate (20 μM), 6 weeks greenhouse, trypan blue staining
Procedure: Test is performed in the greenhouse. 5 maize seeds per treatment were sown in 500 ml rose pots (7×7×18 cm) containing a mix of sand and perlite (1:1). 3 replicates were made. The active ingredient was solved in a DMSO and seed treatment was performed with lab equipment. To inoculate with arbuscular mycorrhizal fungi, 8 ml inoculum (AMykor GmbH; Germany) were mixed with 1 l of the sand-perlite mixture. Seeds were covered by 3 cm of LECA (light expanded clay aggregate). Pots were incubated in the greenhouse for 6 weeks at 21.5° C./14° C. (day/night) and 80% relative humidity. Once a week plants were watered with nutrient solution (half concentrated Hoagland solution (Hoagland and Arnon, 1950)) containing only a low concentration of phosphate (20 μM). Assessment consisted of mycorrhization of roots. Mycorrhization was evaluated after trypan blue staining by microscopy. Controls are performed in the same conditions in the absence of the active ingredient.

[9] = tested on: Soybean plants; experiment: Greenhouse experiment on soybean inoculated with Bradyrhizobium japonicum; assay type: in vivo
Procedure: Test is performed under greenhouse conditions. The experiment was conducted at a constant air temperature of 25° C. (day) and 20° C. (night) and 65% relative humidity. Plants were regularly watered with ½ strength Nitrogen free Hoagland's solution (Hoagland and Arnon, 1950) as needed.
Initial culture of Bradyrhizobium japonicum was prepared by inoculating single cell colonies from petri plates in 200 mL Yeast Extract Mannithol (YEM) broth (pH 6.8) and incubated at 28° C. and shaken at 150 rpm until an OD600 of 0.2-0.3 is achieved (2-3 days). Absorbance (A600 nm) of the bacterial cultures was determined using a spectrophotometer. The culture was diluted to an OD600 of 0.08 and 1 mL of this culture was used for inoculation onto seeds of all treatments.
Soybean seeds were surface sterilized in 2% sodium hypochlorite for 3 min and then rinsed several times with distilled water (Bhuvaneswari et al. 1980). Seeds were directly sown in pots (130 mm diameter) containing a mixture of sand and turface (2:1, v/v). Five soybean seeds were put in each. Before sowing seeds were soaked in solution containing the active ingredient at the desired concentration for at least two hours. Bradyrhizobium japonicum inoculant prepared as described above was inoculated onto soybean seeds by pipetting 1 mL of diluted culture onto each seed. The seeds were covered gently with the potting mixture, kept on the growth bench. After monitoring emergence, seedlings were thinned to one seedling per pot.
The plants were allowed to grow for 45 days after seeding and were then harvested for final data collection. Data were collected on the following variables: • 1. SPAD meter readings (leaf greenness measurements (chlorophyll content); SPAD-502 Chlorophyll Meter (Konica Minolta Sensing Inc., Japan) • 2. Number of nodules per plant • 3. Nodule dry weight

[10] = tested on: Arabidopsis root; details: literature report (Planta, 2008); cited from earlier work
[11] = soybean, seeds soaked, 0.1 mg/ha, 45 days after seeding, average of 4 replicates

Structure (SMILES) | SPAD [1] | ^33P counting root ([2]; 10^−6 M in hyphal compartment) | ^33P counting shoot ([2]; 10^−6 M in hyphal compartment) | ^33P counting root ([2]; 10^−7 M in hyphal compartment) | ^33P counting shoot ([2]; 10^−7 M in hyphal compartment) | Soybean Germination rate 7 daa ([3]; seed treatment 0.1 mg/ha) [%] | Soybean Germination rate 7 daa ([3]; seed treatment 1 mg/ha) [%] | Wheat Germination rate 3 daa ([4]; seed treatment 0.1 mg/ha) [%] | Wheat Germination rate 3 daa ([4]; seed treatment 1 mg/ha) [%] | Maize Germination rate 6 daa ([5]; seed treatment 0.1 mg/ha) [%] | Maize Germination rate 6 daa ([5]; seed treatment 1 mg/ha) [%] | yield [6] | Germination rate 3 daa ([7]; 3 days after application) [%] | Germination rate 4 daa ([7]; 4 days after application) [%] | Mycorrhization [8] [%] | biomass (root and shoot) ([9]; soybean seeds treated, greenhouse, comparatively to the control, figures not given) | Nodule weight (dry) [9, 11] [g] | Number of nodules [9, 11] | SPAD [9, 11] | Arabidopsis root length [10]
CCCCCC(=O)CC(=O)NC1CCOC1=O (centres unmarked) [Compound A1] | 42 | 121485.7 | 61277.6 | 111374.4 | 70473.9 | 77 | 84 | 52 | 69 | 95 | 94 | significative yield increase | 58 | 78 | 4.3 | increase of biomass (root and shoot) | 0.180 | 84 | 34 | 
CCCCCC(=O)NC1CCOC1=O (centres unmarked) [N-hexanoyl-d1-homoserine-lactone] |  |  |  |  |  |  |  |  |  |  |  |  |  |  |  |  |  |  |  | small increase
